Source: patent publication US12091393B2, “Small molecule vaccine adjuvant for enhancing or prolonging immune response” (The Regents of the University of California, priority 2018, dated 2024)
“Also recorded” adds a separate entry of the source. Like-named read-outs stand apart in the source and are kept apart here.

Key:
THP-1 cells = assay: Cell viability assay (MTT); format: cell-based; conditions: compound 5 μM alone, 18 h, normalized to DMSO as 100%
Experimental: THP-1 cells were plated in 96-well plates (10^5 cells/well) in 100 μL RPMI supplemented with 10% FBS, 100 U/mL penicillin and 100 μg/ml streptomycin. Compounds were dissolved in DMSO at 1 mM stock solution and were further diluted to 10 μM in the assay medium. 100 μL of this solution was added to the cells to obtain a final compound concentration of 5 μM ([…]). After 18 h incubation, a solution of MTT in assay media (0.5 mg/mL) was added to each well and further incubated for 4 to 6 h, followed by addition of cell lysis buffer (15% w/v SDS and 0.12% v/v 12N HCl aqueous solution), incubated overnight, and then absorbance measured at 570 nm using 650 nm as reference using Tecan Infinite M200 plate reader.

NF-κB [1] = assay: Measurement of NF-κB activation using THP1-Blue NF-κB cells (SEAP); format: cell-based; conditions: for activity at 5 µM: 20 h, two point normalized, compound 1 as 200%; for NF-κB activity (SAR discussion, in words): evaluated in both the presence and absence of LPS
NF-κB [2] = assay: cell-based NF-κB FRET assay; conditions: compound + LPS; two point normalized, compound 1 as 200%, LPS (10 ng/mL) as 100%
From the text: Site A was assigned the 4-substituent of thiazole ring, site B was the thiazole ring itself, site C was the central amide bond in the structure, site D was the benzene ring bearing 1,4-carboxyl and sulfamoyl group, site E was the sulfonamide functional group and site F was the amide substituent on the sulfamoyl group.

[3] = compound 5 μM + LPS, LPS (10 ng/mL) as 100%, read-out: NF-κB SEAP Compound + LPS % Activation
[4] = compound 5 μM alone, LPS or DMSO as 100%, read-out: NF-κB SEAP Compound alone % Activation

| SMILES | MTT Compound alone % Viability (THP-1 cells) [%] | activity at 5 µM (NF-κB [1]; [3]) [%] | activity at 5 µM (NF-κB [1]; [4]) [%] | NF-κB activity (SAR discussion, in words) (NF-κB [1]) | NF-κB FRET Compound + LPS % Activation (NF-κB [2]) [%] |
| --- | --- | --- | --- | --- | --- |
| Cc1ccccc1-c1csc(NC(=O)c2ccc(S(=O)(=O)N3CCCCC3)cc2)n1 [Compound 12b, 4-(piperidin-1-ylsulfonyl)-N-(4-(o-tolyl)thiazol-2-yl)benzamide] | 95.69 | 105 | 99.2 | inactive | 100.13 |
| Cc1cccc(-c2csc(NC(=O)c3ccc(S(=O)(=O)N4CCCCC4)cc3)n2)c1 [Compound 12c, 4-(piperidin-1-ylsulfonyl)-N-(4-(m-tolyl)thiazol-2-yl)benzamide] | 96.06 | 98.6 | 99.5 | inactive | 78.98 |
| Cc1ccc(Br)c(-c2csc(NC(=O)c3ccc(S(=O)(=O)N4CCCCC4)cc3)n2)c1 [Compound 12d, N-(4-(2-bromo-5-methylphenyl)thiazol-2-yl)-4-(piperidin-1-ylsulfonyl)benzamide] |  | 223 | 254 | active; also recorded: most potent | 197.32 |
| Cc1ccc(Br)cc1-c1csc(NC(=O)c2ccc(S(=O)(=O)N3CCCCC3)cc2)n1 [Compound 12e, N-(4-(5-bromo-2-methylphenyl)thiazol-2-yl)-4-(piperidin-1-ylsulfonyl)benzamide] | 91.50 | 213 | 207 | active | 189.97 |
| Cc1csc(NC(=O)c2ccc(S(=O)(=O)N3CCCCC3)cc2)n1 [Compound 12g, N-(4-methylthiazol-2-yl)-4-(piperidin-1-ylsulfonyl)benzamide] | 114.29 | 101 | 99.9 | None of these molecules had any NF-κB activity | 110.48 |
| CCc1csc(NC(=O)c2ccc(S(=O)(=O)N3CCCCC3)cc2)n1 [Compound 12h, N-(4-ethylthiazol-2-yl)-4-(piperidin-1-ylsulfonyl)benzamide] | 122.75 | 94 | 98.7 | None of these molecules had any NF-κB activity | 108.38 |
| CCCc1csc(NC(=O)c2ccc(S(=O)(=O)N3CCCCC3)cc2)n1 [Compound 12i, 4-(piperidin-1-ylsulfonyl)-N-(4-propylthiazol-2-yl)benzamide] | 122.66 | 94.2 | 99.2 | None of these molecules had any NF-κB activity | 112.46 |
| CC(C)(C)Cc1csc(NC(=O)c2ccc(S(=O)(=O)N3CCCCC3)cc2)n1 [Compound 12j, N-(4-neopentylthiazol-2-yl)-4-(piperidin-1-ylsulfonyl)benzamide] | 125.52 | 93.9 | 99.5 | None of these molecules had any NF-κB activity | 110.62 |
| Cc1cccc(-c2csc(NC(=O)c3ccc(S(=O)(=O)N4CCCCC4)cc3)n2)c1C [Compound 12l, N-(4-(2,3-dimethylphenyl)thiazol-2-yl)-4-(piperidin-1-ylsulfonyl)benzamide] | 98.37 | 157 | 195 | retained activity | 206.60 |
| Cc1ccc(-c2csc(NC(=O)c3ccc(S(=O)(=O)N4CCCCC4)cc3)n2)c(C)c1 [Compound 12m, N-(4-(2,4-dimethylphenyl)thiazol-2-yl)-4-(piperidin-1-ylsulfonyl)benzamide] | 101.40 | 86.7 | 98.5 | inactive | 161.33 |
| Cc1ccc(-c2csc(NC(=O)c3ccc(S(=O)(=O)N4CCCCC4)cc3)n2)cc1C [Compound 12n, N-(4-(3,4-dimethylphenyl)thiazol-2-yl)-4-(piperidin-1-ylsulfonyl)benzamide] | 97.59 | 98 | 98.7 | inactive | 128.01 |
| Cc1cc(C)cc(-c2csc(NC(=O)c3ccc(S(=O)(=O)N4CCCCC4)cc3)n2)c1 [Compound 12o, N-(4-(3,5-dimethylphenyl)thiazol-2-yl)-4-(piperidin-1-ylsulfonyl)benzamide] | 92.91 | 93.2 | 98.2 | inactive | 170.36 |
| Cc1ccc2c(c1)-c1nc(NC(=O)c3ccc(S(=O)(=O)N4CCCCC4)cc3)sc1C2 [Compound 12r, N-(5-methyl-8H-indeno[1,2-d]thiazol-2-yl)-4-(piperidin-1-ylsulfonyl)benzamide] | 82.46 | 95.6 | 102 | weakly active | 129.01 |
| Cc1ccc2c(c1)-c1nc(NC(=O)c3ccc(S(=O)(=O)N4CCCCC4)cc3)sc1CC2 [Compound 12s, N-(8-methyl-4,5-dihydronaphtho[1,2-d]thiazol-2-yl)-4-(piperidin-1-ylsulfonyl)benzamide] | 102.16 | 141 | 128 | weakly active | 159.62 |
| C#Cc1ccc(C)c(-c2csc(NC(=O)c3ccc(S(=O)(=O)N4CCCCC4)cc3)n2)c1 [Compound 12t, N-(4-(5-ethynyl-2-methylphenyl)thiazol-2-yl)-4-(piperidin-1-ylsulfonyl)benzamide] | 82.42 | 90 | 101 | inactive | 88.20 |
| Cc1ccc(C)c(-c2c[nH]c(NC(=O)c3ccc(S(=O)(=O)N4CCCCC4)cc3)n2)c1 [Compound 18a, N-(4-(2,5-dimethylphenyl)-1H-imidazol-2-yl)-4-(piperidin-1-ylsulfonyl)benzamide] | 50.69 | 97.3 | 99.3 | none of these molecules that replaced the thiazole functionality were active | 142.21 |
| Cc1ccc(C)c(-c2cccc(NC(=O)c3ccc(S(=O)(=O)N4CCCCC4)cc3)n2)c1 [Compound 18b, N-(6-(2,5-dimethylphenyl)pyridin-2-yl)-4-(piperidin-1-ylsulfonyl)benzamide] | 93.89 |  | 99.6 | none of these molecules that replaced the thiazole functionality were active | 146.10 |
| Cc1ccc(C)c(-c2ccc(NC(=O)c3ccc(S(=O)(=O)N4CCCCC4)cc3)nc2)c1 [Compound 18c, N-(5-(2,5-dimethylphenyl)pyridin-2-yl)-4-(piperidin-1-ylsulfonyl)benzamide] | 92.06 | 97.9 | 98.3 | none of these molecules that replaced the thiazole functionality were active | 73.65 |
| Cc1ccc(C)c(-c2nnc(NC(=O)c3ccc(S(=O)(=O)N4CCCCC4)cc3)s2)c1 [Compound 18f, N-(5-(2,5-dimethylphenyl)-1,3,4-thiadiazol-2-yl)-4-(piperidin-1-ylsulfonyl)benzamide] | 89.80 | 148 | 99.7 | none of these molecules that replaced the thiazole functionality were active |  |
| CCc1sc(NC(=O)c2ccc(S(=O)(=O)N3CCCCC3)cc2)nc1-c1cc(C)ccc1C [Compound 18r, N-(4-(2,5-dimethylphenyl)-5-ethylthiazol-2-yl)-4-(piperidin-1-ylsulfonyl)benzamide] | 103.66 | 179 | 179 | retained activity |  |
| Cc1ccc(C)c(-c2nc(NC(=O)c3ccc(S(=O)(=O)N4CCCCC4)cc3)sc2C#CCCCO)c1 [Compound 18u, N-(4-(2,5-dimethylphenyl)-5-(5-hydroxypent-1-yn-1-yl)thiazol-2-yl)-4-(piperidin-1-ylsulfonyl)benzamide] | 104.08 | 134 | 100 |  |  |
